Results from PubChem BioAssay (NCI).
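The compound was tested at five concentrations on cells cultured in 96-well plates, with a 48-hour exposure period. At the GI50, growth is halved. TGI denotes the concentration required for complete inhibition of growth.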

Legend:
Experiment in all cases: NCI-60 cell line screen, 48 h
A498 renal = tested on: A498 renal
A549 NSCLC = tested on: A549 NSCLC
CCRF-CEM leukemia = tested on: CCRF-CEM leukemia
EKVX NSCLC = tested on: EKVX NSCLC
KM12 colon = tested on: KM12 colon
LOX IMVI melanoma = tested on: LOX IMVI melanoma
NCI-H226 lung = tested on: NCI-H226 lung
NCI/ADR-RES ovarian = tested on: NCI/ADR-RES ovarian
OVCAR-8 ovarian = tested on: OVCAR-8 ovarian
UO-31 renal = tested on: UO-31 renal
TK-10 renal = tested on: TK-10 renal

Compound	TGI (A498 renal)	TGI (A549 NSCLC)	TGI (CCRF-CEM leukemia)	TGI (EKVX NSCLC)	TGI (KM12 colon)	TGI (LOX IMVI melanoma)	TGI (NCI-H226 lung)	TGI (NCI/ADR-RES ovarian)	TGI (OVCAR-8 ovarian)	TGI (UO-31 renal)	TGI (TK-10 renal)	GI50 (A498 renal)	GI50 (A549 NSCLC)	GI50 (CCRF-CEM leukemia)	GI50 (EKVX NSCLC)	GI50 (KM12 colon)	GI50 (NCI-H226 lung)	GI50 (NCI/ADR-RES ovarian)	GI50 (TK-10 renal)	GI50 (UO-31 renal)
CN(C)CCNC(=O)c1cccc2c(=O)c3ccccc3oc12	52.8 µM	> 100 µM	> 100 µM	> 86.9 µM	> 100 µM	43.4 µM	76.5 µM	> 79.9 µM	> 83.5 µM	55 µM	–	–	–	–	–	–	–	–	–	–
CC(=O)C(C(c1ccccc1)N1CCOCC1)N1CCOCC1 (stereo not drawn)	> 100 µM	> 100 µM	> 100 µM	> 100 µM	> 100 µM	> 100 µM	> 100 µM	> 100 µM	> 100 µM	> 100 µM	53.7 µM	–	–	–	–	–	–	–	–	–
CC1(C)[C@@H]2CC[C@]1(C)[C@H](OC(=O)CSC#N)C2	> 100 µM	> 100 µM	–	> 100 µM	> 100 µM	> 100 µM	> 100 µM	> 100 µM	> 100 µM	> 100 µM	> 100 µM	–	–	–	–	–	–	–	–	–
COC1OC(CS(=O)(=O)O)C(O)C(O)C1O (stereo not drawn)	> 100 µM	–	> 100 µM	–	> 100 µM	> 100 µM	> 100 µM	> 100 µM	> 100 µM	> 100 µM	> 100 µM	–	–	–	–	–	–	–	–	–
CC1=C2C(O)C(C(C)C(=O)N(C)C)CCC2(C)C=CC1=O (stereo not drawn)	> 100 µM	> 100 µM	> 100 µM	> 100 µM	> 100 µM	> 100 µM	> 100 µM	> 100 µM	> 100 µM	> 100 µM	–	–	–	–	–	–	–	–	–	–
CCC1C[N+]23CCc4c([nH]c5ccccc45)C2CC1CC3 (stereo not drawn)	–	–	> 100 µM	> 100 µM	> 100 µM	> 100 µM	> 100 µM	–	> 100 µM	> 100 µM	> 100 µM	–	–	–	–	–	–	–	–	–
CCCC(C)c1ccc(OCCCCCCN2CCNCC2)cc1 (stereo not drawn)	9.33 µM	4.34 µM	7.46 µM	6.63 µM	3.85 µM	–	35.8 µM	5.37 µM	–	20.3 µM	3.47 µM	2.43 µM	1.9 µM	2.44 µM	2.34 µM	1.87 µM	9.26 µM	2.22 µM	1.8 µM	4.32 µM
Cc1ccc(S(=O)(=O)Nc2cccc3c(=O)[nH]cnc23)cc1	> 100 µM	> 100 µM	> 100 µM	> 100 µM	> 100 µM	> 100 µM	> 100 µM	–	> 100 µM	> 100 µM	> 100 µM	–	–	–	–	–	–	–	–	–
CCOP(=Nc1ccc(N(C)C)cc1)(OCC)OCC	> 100 µM	> 100 µM	–	> 100 µM	> 100 µM	–	–	> 100 µM	> 100 µM	> 100 µM	> 100 µM	–	–	–	–	–	–	–	–	–
O=C(c1ccccc1)c1ccc2n[se]nc2c1	> 100 µM	> 100 µM	> 100 µM	> 100 µM	> 100 µM	> 100 µM	–	–	> 100 µM	> 100 µM	> 100 µM	–	–	–	–	–	–	–	–	–
